{"source": "patent US12084435B2", "about": "“Pyridine ring-substituted pyridazinol compounds and derivatives, preparation methods, herbicidal compositions and applications thereof” (Qingdao Kingagroot Chemical Compound Co., Ltd., priority 2018, dated 2024)"}
{"tested_on": "monocotyledonous and dicotyledonous weed", "assay": "Post-emergence test, weed control effect (Tables 6 and 7)", "assay_type": "in vivo", "parameters": "key: 10: completely dead; above 90% growth inhibition rate; above 80% growth inhibition rate; above 70% growth inhibition rate; above 60% growth inhibition rate; above 50% growth inhibition rate; above 40% growth inhibition rate; above 30% growth inhibition rate; above 20% growth inhibition rate; 1: below 20% growth inhibition rate; 0: no effect", "settings": "Dose 300 g/ha", "procedure": "(§1) The above described growth inhibition rates are fresh weight inhibition rates. Experiment of post-emergence test: monocotyledonous and dicotyledonous weed seeds as well as main crop seeds (i.e., wheat, corn, rice, soybean, cotton, oilseed rape, millet and sorghum) were put into aplastic pot loaded with soil, then covered with 0.5-2 cm of soil, and the seeds were allowed to grow in good greenhouse environment. The test plants were treated at 4-5 leaf stage 2-3 week […] sowing. The test compounds of the invention were dissolved in acetone respectively, then added with Tween-80 and diluted by a certain amount of water to give solutions with certain concentrations. The solution was sprayed to the plants with as prayer. The plants were cultured for 3 weeks in the greenhouse."}
{"molecule": "CCCCCCCCSC(=O)Oc1cc(Cl)nnc1-c1ccccc1", "note": "[Control Compound B, reference compound]", "comparison experiment (activity level), Digitaria sanguinalis": 0, "comparison experiment (activity level), Echinochloa crus-galli": 0, "comparison experiment (activity level), Galium aparine": "4 (above 40% growth inhibition rate)", "comparison experiment (activity level), Rorippa indica": "3 (above 30% growth inhibition rate)", "comparison experiment (activity level), Setaria viridis": "2 (above 20% growth inhibition rate)", "comparison experiment (activity level), Veronica polita": "6 (above 60% growth inhibition rate)"}
{"molecule": "Oc1cc(Cl)nnc1-c1ccnc(F)c1", "note": "[Compound 2-3]", "comparison experiment (activity level), Digitaria sanguinalis": 10, "comparison experiment (activity level), Echinochloa crus-galli": 10, "comparison experiment (activity level), Galium aparine": 10, "comparison experiment (activity level), Rorippa indica": 10, "comparison experiment (activity level), Setaria viridis": 10, "comparison experiment (activity level), Veronica polita": 10}
{"molecule": "Oc1cc(Cl)nnc1-c1cccnc1", "note": "[Compound 1-1]", "comparison experiment (activity level), Digitaria sanguinalis": "7 (above 70% growth inhibition rate)", "comparison experiment (activity level), Echinochloa crus-galli": "8 (above 80% growth inhibition rate)", "comparison experiment (activity level), Galium aparine": "9 (above 90% growth inhibition rate)", "comparison experiment (activity level), Rorippa indica": 10, "comparison experiment (activity level), Setaria viridis": 10, "comparison experiment (activity level), Veronica polita": "9 (above 90% growth inhibition rate)"}
{"molecule": "Oc1cc(Cl)nnc1-c1cccnc1F", "note": "[Compound 1-2]", "comparison experiment (activity level), Digitaria sanguinalis": "8 (above 80% growth inhibition rate)", "comparison experiment (activity level), Echinochloa crus-galli": 10, "comparison experiment (activity level), Galium aparine": "9 (above 90% growth inhibition rate)", "comparison experiment (activity level), Rorippa indica": 10, "comparison experiment (activity level), Setaria viridis": 10, "comparison experiment (activity level), Veronica polita": 10}
{"molecule": "Oc1cc(Cl)nnc1-c1cncc(F)c1", "note": "[Compound 1-4]", "comparison experiment (activity level), Digitaria sanguinalis": "8 (above 80% growth inhibition rate)", "comparison experiment (activity level), Echinochloa crus-galli": "8 (above 80% growth inhibition rate)", "comparison experiment (activity level), Galium aparine": 10, "comparison experiment (activity level), Rorippa indica": 10, "comparison experiment (activity level), Setaria viridis": 10, "comparison experiment (activity level), Veronica polita": 10}
{"tested_on": "monocotyledonous and dicotyledonous weed", "assay": "Post-emergence test, weed control effect (Tables 6 and 7)", "assay_type": "in vivo", "parameters": "key: 10: completely dead; above 90% growth inhibition rate; above 80% growth inhibition rate; above 70% growth inhibition rate; above 60% growth inhibition rate; above 50% growth inhibition rate; above 40% growth inhibition rate; above 30% growth inhibition rate; above 20% growth inhibition rate; 1: below 20% growth inhibition rate; 0: no effect", "settings": "Dose 1000 g/ha, after 3 weeks", "procedure": "as §1"}
{"molecule": "Oc1cc(Cl)nnc1-c1ccnc(Cl)c1", "note": "[Compound 2-5]", "weed control effect (activity level), Amaranthus retroflexus": 10, "weed control effect (activity level), Chenopodiaceae": 10, "weed control effect (activity level), Rorippa indica": 10, "weed control effect (activity level), Veronica polita": 10}
{"molecule": "Oc1cc(Cl)nnc1-c1cc(F)ncc1F", "note": "[Compound 2-11]", "weed control effect (activity level), Amaranthus retroflexus": 10, "weed control effect (activity level), Chenopodiaceae": 10, "weed control effect (activity level), Rorippa indica": 10, "weed control effect (activity level), Veronica polita": 10}
{"molecule": "Oc1cc(Cl)nnc1-c1cc(F)nc(Cl)c1", "note": "[Compound 2-23]", "weed control effect (activity level), Amaranthus retroflexus": 10, "weed control effect (activity level), Chenopodiaceae": 10, "weed control effect (activity level), Rorippa indica": 10, "weed control effect (activity level), Veronica polita": 10}
{"molecule": "Oc1cc(Cl)nnc1-c1ccnc(F)c1F", "note": "[Compound 2-10]", "weed control effect (activity level), Amaranthus retroflexus": 10, "weed control effect (activity level), Chenopodiaceae": 10, "weed control effect (activity level), Rorippa indica": 10, "weed control effect (activity level), Veronica polita": 10}
{"molecule": "Oc1cc(Cl)nnc1-c1ccnc(F)c1", "note": "[Compound 2-3]", "weed control effect (activity level), Amaranthus retroflexus": 10, "weed control effect (activity level), Chenopodiaceae": 10, "weed control effect (activity level), Rorippa indica": 10, "weed control effect (activity level), Veronica polita": 10}
{"molecule": "Oc1cc(Cl)nnc1-c1cc(F)nc(F)c1", "note": "[Compound 2-13]", "weed control effect (activity level), Amaranthus retroflexus": 10, "weed control effect (activity level), Chenopodiaceae": 10, "weed control effect (activity level), Rorippa indica": 10, "weed control effect (activity level), Veronica polita": 10}
{"tested_on": "monocotyledonous and dicotyledonous weed", "assay": "Post-emergence test, weed control effect (Tables 6 and 7)", "assay_type": "in vivo", "parameters": "key: 10: completely dead; above 90% growth inhibition rate; above 80% growth inhibition rate; above 70% growth inhibition rate; above 60% growth inhibition rate; above 50% growth inhibition rate; above 40% growth inhibition rate; above 30% growth inhibition rate; above 20% growth inhibition rate; 1: below 20% growth inhibition rate; 0: no effect", "settings": "Dose 2000 g/ha, after 3 weeks", "procedure": "as §1"}
{"molecule": "Cc1nc(F)ccc1-c1nnc(Cl)cc1O", "note": "[Compound 1-90]", "weed control effect (activity level), Amaranthus retroflexus": 10, "weed control effect (activity level), Chenopodiaceae": 10, "weed control effect (activity level), Rorippa indica": 10, "weed control effect (activity level), Veronica polita": "7 (above 70% growth inhibition rate)"}
{"molecule": "Oc1cc(Cl)nnc1-c1ccc(F)c(F)n1", "note": "[Compound 3-18]", "weed control effect (activity level), Amaranthus retroflexus": 10, "weed control effect (activity level), Chenopodiaceae": 10, "weed control effect (activity level), Rorippa indica": 10, "weed control effect (activity level), Veronica polita": 10}
{"molecule": "Oc1cc(Cl)nnc1-c1ccc(F)cn1", "note": "[Compound 3-3]", "weed control effect (activity level), Amaranthus retroflexus": 10, "weed control effect (activity level), Chenopodiaceae": 10, "weed control effect (activity level), Rorippa indica": 10, "weed control effect (activity level), Veronica polita": 10}
{"molecule": "Oc1cc(Cl)nnc1-c1ccc(Br)nc1", "note": "[Compound 1-11]", "weed control effect (activity level), Amaranthus retroflexus": 10, "weed control effect (activity level), Chenopodiaceae": 10, "weed control effect (activity level), Rorippa indica": 10, "weed control effect (activity level), Veronica polita": 10}
{"molecule": "Oc1cc(Cl)nnc1-c1cc(Cl)ccn1", "note": "[Compound 3-8]", "weed control effect (activity level), Amaranthus retroflexus": 10, "weed control effect (activity level), Chenopodiaceae": 10, "weed control effect (activity level), Rorippa indica": 10, "weed control effect (activity level), Veronica polita": 10}
{"molecule": "Oc1cc(Cl)nnc1-c1cnc(F)c(F)c1", "note": "[Compound 1-60]", "weed control effect (activity level), Amaranthus retroflexus": 10, "weed control effect (activity level), Chenopodiaceae": 10, "weed control effect (activity level), Rorippa indica": 10, "weed control effect (activity level), Veronica polita": "7 (above 70% growth inhibition rate)"}
{"molecule": "Oc1cc(Cl)nnc1-c1ccc(Cl)c(F)n1", "note": "[Compound 3-30]", "weed control effect (activity level), Amaranthus retroflexus": 10, "weed control effect (activity level), Chenopodiaceae": 10, "weed control effect (activity level), Rorippa indica": 10, "weed control effect (activity level), Veronica polita": 10}
{"molecule": "Oc1cc(Cl)nnc1-c1cnccc1F", "note": "[Compound 1-5]", "weed control effect (activity level), Amaranthus retroflexus": 10, "weed control effect (activity level), Chenopodiaceae": 10, "weed control effect (activity level), Rorippa indica": 10, "weed control effect (activity level), Veronica polita": 10}
{"molecule": "Oc1cc(Cl)nnc1-c1cc(F)c(F)nc1F", "note": "[Compound 1-105]", "weed control effect (activity level), Amaranthus retroflexus": 10, "weed control effect (activity level), Chenopodiaceae": 10, "weed control effect (activity level), Rorippa indica": 10, "weed control effect (activity level), Veronica polita": 10}
{"molecule": "Oc1cc(Cl)nnc1-c1cc(F)cc(F)n1", "note": "[Compound 3-19]", "weed control effect (activity level), Amaranthus retroflexus": 10, "weed control effect (activity level), Chenopodiaceae": 10, "weed control effect (activity level), Rorippa indica": 10, "weed control effect (activity level), Veronica polita": 10}
{"molecule": "Oc1cc(Cl)nnc1-c1cccnc1", "note": "[Compound 1-1]", "weed control effect (activity level), Amaranthus retroflexus": 10, "weed control effect (activity level), Chenopodiaceae": 10, "weed control effect (activity level), Rorippa indica": 10, "weed control effect (activity level), Veronica polita": 10}
{"molecule": "Oc1cc(Cl)nnc1-c1ccc(C(F)(F)F)nc1", "note": "[Compound 1-23]", "weed control effect (activity level), Amaranthus retroflexus": 10, "weed control effect (activity level), Chenopodiaceae": 10, "weed control effect (activity level), Rorippa indica": 10, "weed control effect (activity level), Veronica polita": 10}
{"molecule": "Oc1cc(Cl)nnc1-c1cccnc1F", "note": "[Compound 1-2]", "weed control effect (activity level), Amaranthus retroflexus": 10, "weed control effect (activity level), Chenopodiaceae": 10, "weed control effect (activity level), Rorippa indica": 10, "weed control effect (activity level), Veronica polita": 10}
{"molecule": "Oc1cc(Cl)nnc1-c1ccc(Cl)cn1", "note": "[Compound 3-7]", "weed control effect (activity level), Amaranthus retroflexus": 10, "weed control effect (activity level), Chenopodiaceae": 10, "weed control effect (activity level), Rorippa indica": 10, "weed control effect (activity level), Veronica polita": 10}
{"molecule": "Oc1cc(Cl)nnc1-c1cncc(F)c1", "note": "[Compound 1-4]", "weed control effect (activity level), Amaranthus retroflexus": 10, "weed control effect (activity level), Chenopodiaceae": 10, "weed control effect (activity level), Rorippa indica": 10, "weed control effect (activity level), Veronica polita": 10}
{"molecule": "Oc1cc(Cl)nnc1-c1ccc(F)nc1", "note": "[Compound 1-3]", "weed control effect (activity level), Amaranthus retroflexus": 10, "weed control effect (activity level), Chenopodiaceae": 10, "weed control effect (activity level), Rorippa indica": 10, "weed control effect (activity level), Veronica polita": 10}
{"tested_on": "monocotyledonous and dicotyledonous weed", "assay": "Post-emergence test, weed control effect (Tables 6 and 7)", "assay_type": "in vivo", "parameters": "key: 10: completely dead; above 90% growth inhibition rate; above 80% growth inhibition rate; above 70% growth inhibition rate; above 60% growth inhibition rate; above 50% growth inhibition rate; above 40% growth inhibition rate; above 30% growth inhibition rate; above 20% growth inhibition rate; 1: below 20% growth inhibition rate; 0: no effect", "settings": "Dose 3000 g/ha, after 3 weeks", "procedure": "as §1"}
{"molecule": "Oc1cc(C(F)(F)C(F)(F)F)nnc1-c1ccc(F)nc1F", "note": "[Compound 1-131]", "weed control effect (activity level), Amaranthus retroflexus": 10, "weed control effect (activity level), Chenopodiaceae": 10, "weed control effect (activity level), Rorippa indica": 10, "weed control effect (activity level), Veronica polita": 10}
